Measured values taken from PMC9250534, “Synthesis and direct assay of large macrocycle diversities by combinatorial late-stage modification at picomole scale” (Nature Communications, 2022).
Numbered stars: 1 amine (or outer) side, 2 acyl side, 3 side chain; on linkers, the order of the positions; unused ones are H or OH. Bridge positions count the residues as written; N and C are the ends. Square brackets hold non-standard residues; d marks the D form. Peptide text beside a SMILES is read from it. * marks the point of attachment. ξ: configuration not given here. ξNaproxenoyl = COc1ccc2cc(C(C)C(=O)*)ccc2c1; Tetrahydropyran4carbonyl = O=C(C1CCOCC1)*; 2Thenoyl(5-Cl) = O=C(c1ccc(Cl)s1)*; Benzoyl(4-Cl) = O=C(c1ccc(Cl)cc1)*; Cyclohexylacetyl = O=C(CC1CCCCC1)*; Morpholinoacetyl = O=C(CN1CCOCC1)*; Cysteamide = C(CS[*:3])N[*:1]; X6 = O=C(c1ccc2nc[nH]c2c1)*; X1 = O=C(/C=C/c1ccccc1)*; Api = NC1(C(=O)O)CCNCC1; Dap = NC[CH](N)C(=O)O; Mpa = O=C(O)CCS

Target: MDM2 (Homo sapiens, UniProt Q00987)
Sequence (Q00987 whole entry): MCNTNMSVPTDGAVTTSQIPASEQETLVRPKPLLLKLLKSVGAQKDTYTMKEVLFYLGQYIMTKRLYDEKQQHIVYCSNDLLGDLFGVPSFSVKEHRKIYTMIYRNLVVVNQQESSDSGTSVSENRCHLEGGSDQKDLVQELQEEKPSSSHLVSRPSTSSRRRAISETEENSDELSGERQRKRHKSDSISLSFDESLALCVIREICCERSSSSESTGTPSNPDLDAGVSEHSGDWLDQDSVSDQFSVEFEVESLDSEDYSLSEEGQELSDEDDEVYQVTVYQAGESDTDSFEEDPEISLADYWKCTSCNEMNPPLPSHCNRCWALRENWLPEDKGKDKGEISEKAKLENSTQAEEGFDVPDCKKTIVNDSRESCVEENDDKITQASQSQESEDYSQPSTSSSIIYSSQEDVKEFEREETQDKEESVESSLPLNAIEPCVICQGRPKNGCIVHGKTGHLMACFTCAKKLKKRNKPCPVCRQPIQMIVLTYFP
Assay: MDM2 binding screen: displacement of fluorescent p53 peptide probe FP53 (fluorescence polarization)
Conditions: for fraction fluorescent probe displaced, Screen: initial screen; for fraction fluorescent probe displaced, Screen / fraction fluorescent probe displaced, Replicate: crude macrocycle reactions; for fraction fluorescent probe displaced: 10 µM macrocycle concentration, crude acylated macrocycle (scaffold Mpa-AA1-AA2-AA3 x carboxylic acid), p53-based fluorescent peptide, human MDM2
Summary of the method: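 Single-point screen: one fluorescence anisotropy reading at 25 °C (485 nm excitation, 535 nm emission) per macrocycle. Crude macrocycle reactions, final 10 µM, were scored for displacing the fluorescent p53 peptide from human MDM2.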

O=C1CCNC(=O)C(Cc2ccccc2)NC(=O)C2CN(C(=O)c3ccc(Cl)cc3)CCN2C(=O)CCSSCCN1 (centres unmarked) [X D7 F B2 Acid 25]
fraction fluorescent probe displaced, Screen (Acid 25): -0.00813
fraction fluorescent probe displaced, Replicate (Acid 25): 0.07

O=C1CCSSCCNC(=O)C2CCCN2C(=O)C2CN(C(=O)C=Cc3ccccc3)CCN2C(=O)C(Cc2ccccc2)N1 (mixture of isomers) [X F D7 B1 Acid 91]
fraction fluorescent probe displaced, Screen (Acid 91): -0.0241
fraction fluorescent probe displaced, Replicate (Acid 91): -0.06

O=C1CCSSCCNC(=O)[C@H](Cc2ccccc2)NC(=O)CCNC(=O)[C@H](CNC(=O)c2ccc(Cl)s2)N1 [X D3 B2 F Acid 14]
fraction fluorescent probe displaced, Screen (Acid 14): 0.17
fraction fluorescent probe displaced, Replicate (Acid 14): 0.10

O=C1CCNC(=O)[C@H](Cc2c[nH]c3ccccc23)NC(=O)[C@H](CNC(=O)c2ccc(Cl)s2)NC(=O)CCSSCCN1 [X D3 W B2 Acid 14]
fraction fluorescent probe displaced, Screen (Acid 14): 0.23
fraction fluorescent probe displaced, Replicate (Acid 14): 0.20

O=C(NC[C@@H]1NC(=O)[C@@H]2CCCN2C(=O)CCSSCCNC(=O)[C@H](Cc2c[nH]c3ccccc23)NC1=O)c1ccc(Cl)cc1 [X-B1-D3-W + A25] ([Mpa]P[Dap](Benzoyl(4-Cl))W-Cysteamide; disulfide 1-C)
fraction fluorescent probe displaced: 0.2195

O=C1CCNC(=O)[C@H](Cc2ccccc2)NC(=O)C2(CCN(C(=O)/C=C/c3ccccc3)CC2)NC(=O)CCSSCCN1 [X D6 F B2 Acid 91]
fraction fluorescent probe displaced, Screen (Acid 91): 0.14
fraction fluorescent probe displaced, Replicate (Acid 91): 0.04

O=C1CCSSCCNC(=O)C(CNC(=O)c2ccc(Cl)s2)NC(=O)c2cccc(c2)CNC(=O)C(Cc2ccccc2)N1 (centres unmarked) [X F B5 D3 Acid 14]
fraction fluorescent probe displaced, Screen (Acid 14): 0.08
fraction fluorescent probe displaced, Replicate (Acid 14): -0.00432

O=C1CCSSCCNC(=O)[C@@H]2CCCN2C(=O)[C@H](Cc2c[nH]c3ccccc23)NC(=O)[C@H](CNC(=O)c2ccc(Cl)s2)N1 [X D3 W B1 Acid 14] ([Mpa][Dap](2Thenoyl(5-Cl))WP-Cysteamide; disulfide 1-C)
fraction fluorescent probe displaced, Screen (Acid 14): 0.14
fraction fluorescent probe displaced, Replicate (Acid 14): 0.17

O=C1NCCSSCCC(=O)N2C[C@@H](NC(=O)c3ccc(Cl)cc3)C[C@H]2C(=O)N[C@@H](Cc2ccccc2)C(=O)NCc2cccc1c2 [X D5 F B5 Acid 25]
fraction fluorescent probe displaced, Screen (Acid 25): 0.0569
fraction fluorescent probe displaced, Replicate (Acid 25): 0.0465

O=C(C=Cc1ccccc1)NC1CC2C(=O)N3CCCC(C3)C(=O)NCCSSCCC(=O)NC(Cc3c[nH]c4ccccc34)C(=O)N2C1 (centres unmarked) [X W D5 B4 Acid 91]
fraction fluorescent probe displaced, Screen (Acid 91): 0.16
fraction fluorescent probe displaced, Replicate (Acid 91): 0.09

O=C1NCCSSCCC(=O)N2CCN(C(=O)c3ccc(Cl)cc3)CC2C(=O)N2CCCC2C(=O)NC1Cc1ccccc1 (centres unmarked) [X D7 B1 F Acid 25]
fraction fluorescent probe displaced, Screen (Acid 25): 0.0569
fraction fluorescent probe displaced, Replicate (Acid 25): 0.12

COc1ccc2cc(C(C)C(=O)NCC3NC(=O)C4CCCN4C(=O)CCSSCCNC(=O)C(Cc4c[nH]c5ccccc45)NC3=O)ccc2c1 (centres unmarked) [X-B1-D3-W + A97] ([Mpa]P[Dap](ξNaproxenoyl)W-Cysteamide; disulfide 1-C; configuration not given here)
fraction fluorescent probe displaced: 0.005277

O=C1CCNC(=O)[C@H](Cc2ccccc2)NC(=O)[C@H](CNC(=O)c2ccc(Cl)cc2)NC(=O)CCSSCCN1 [X D3 F B2 Acid 25]
fraction fluorescent probe displaced, Screen (Acid 25): -0.00813
fraction fluorescent probe displaced, Replicate (Acid 25): 0.0211

O=C1CCNC(=O)[C@H](Cc2c[nH]c3ccccc23)NC(=O)[C@H](CNC(=O)c2ccc(Cl)cc2)NC(=O)CCSSCCN1 [X D3 W B2 Acid 25]
fraction fluorescent probe displaced, Screen (Acid 25): 0.15
fraction fluorescent probe displaced, Replicate (Acid 25): 0.20

O=C1CCSSCCNC(=O)C(Cc2c[nH]c3ccccc23)NC(=O)C2CN(C(=O)c3ccc(Cl)cc3)CCN2C(=O)c2cccc(c2)CN1 (centres unmarked) [X B5 D7 W Acid 25]
fraction fluorescent probe displaced, Screen (Acid 25): 0.09
fraction fluorescent probe displaced, Replicate (Acid 25): 0.15

O=C1NCCSSCCC(=O)N2CCN(C(=O)c3ccc(Cl)s3)CC2C(=O)NC(Cc2ccccc2)C(=O)NCc2cccc1c2 (mixture of isomers) [X D7 F B5 Acid 14]
fraction fluorescent probe displaced, Screen (Acid 14): 0.11
fraction fluorescent probe displaced, Replicate (Acid 14): 0.17

O=C(C=Cc1ccccc1)NCC1NC(=O)C(Cc2ccccc2)NC(=O)C2CCCN(C2)C(=O)CCSSCCNC1=O (centres unmarked) [X B4 F D3 Acid 91]
fraction fluorescent probe displaced, Screen (Acid 91): 0.03
fraction fluorescent probe displaced, Replicate (Acid 91): -0.00827

O=C(/C=C/c1ccccc1)NC[C@@H]1NC(=O)[C@H](Cc2c[nH]c3ccccc23)NC(=O)CCNC(=O)CCSSCCNC1=O [X B2 W D3 Acid 91]
fraction fluorescent probe displaced, Screen (Acid 91): 0.14
fraction fluorescent probe displaced, Replicate (Acid 91): 0.07

O=C1CCSSCCNC(=O)c2cccc(c2)CNC(=O)[C@H](CNC(=O)c2ccc(Cl)s2)NC(=O)[C@H](Cc2c[nH]c3ccccc23)N1 [X W D3 B5 Acid 14]
fraction fluorescent probe displaced, Screen (Acid 14): 0.31
fraction fluorescent probe displaced, Replicate (Acid 14): 0.07

O=C(C=Cc1ccccc1)NC1CC2C(=O)NCc3cccc(c3)C(=O)NCCSSCCC(=O)NC(Cc3ccccc3)C(=O)N2C1 (centres unmarked) [X F D5 B5 Acid 91]
fraction fluorescent probe displaced, Screen (Acid 91): -0.05
fraction fluorescent probe displaced, Replicate (Acid 91): -0.0333

O=C1NCCSSCCC(=O)N2CCN(C(=O)c3ccc(Cl)cc3)CC2C(=O)NC(Cc2ccccc2)C(=O)NCc2cccc1c2 (centres unmarked) [X D7 F B5 Acid 25]
fraction fluorescent probe displaced, Screen (Acid 25): 0.12
fraction fluorescent probe displaced, Replicate (Acid 25): 0.43

O=C(NC[C@@H]1NC(=O)[C@@H]2CCCN2C(=O)CCSSCCNC(=O)[C@H](Cc2ccccc2)NC1=O)C1CCOCC1 [X-B1-D3-F + A44] ([Mpa]P[Dap](Tetrahydropyran4carbonyl)F-Cysteamide; disulfide 1-C)
fraction fluorescent probe displaced: 0.01122

O=C(CN1CCOCC1)NC[C@@H]1NC(=O)[C@@H]2CCCN2C(=O)CCSSCCNC(=O)[C@H](Cc2c[nH]c3ccccc23)NC1=O [X-B1-D3-W + A63] ([Mpa]P[Dap](Morpholinoacetyl)W-Cysteamide; disulfide 1-C)
fraction fluorescent probe displaced: 0.03922

O=C1CCSSCCNC(=O)[C@H](Cc2ccccc2)NC(=O)C2(CCN(C(=O)c3ccc(Cl)cc3)CC2)NC(=O)c2cccc(c2)CN1 [X B5 D6 F Acid 25]
fraction fluorescent probe displaced, Screen (Acid 25): 0.0462
fraction fluorescent probe displaced, Replicate (Acid 25): 0.07

O=C(NC[C@@H]1NC(=O)[C@@H]2CCCN2C(=O)CCSSCCNC(=O)[C@H](Cc2c[nH]c3ccccc23)NC1=O)c1ccc2nc[nH]c2c1 [X-B1-D3-W + A6] ([Mpa]P[Dap](X6)W-Cysteamide; disulfide 1-C)
fraction fluorescent probe displaced: 0.2779

O=C(CC1CCCCC1)NC[C@@H]1NC(=O)[C@@H]2CCCN2C(=O)CCSSCCNC(=O)[C@H](Cc2ccccc2)NC1=O [X-B1-D3-F + A66] ([Mpa]P[Dap](Cyclohexylacetyl)F-Cysteamide; disulfide 1-C)
fraction fluorescent probe displaced: 0.03478

O=C1CCSSCCNC(=O)C2(CCN(C(=O)c3ccc(Cl)cc3)CC2)NC(=O)[C@H](Cc2ccccc2)NC(=O)CCN1 [X B2 F D6 Acid 25]
fraction fluorescent probe displaced, Screen (Acid 25): -0.17
fraction fluorescent probe displaced, Replicate (Acid 25): 0.0465

O=C1NCCSSCCC(=O)N2CCC[C@H]2C(=O)NC2(CCN(C(=O)/C=C/c3ccccc3)CC2)C(=O)N[C@H]1Cc1ccccc1 [X B1 D6 F Acid 91] ([Mpa]P[Api](X1)F-Cysteamide; disulfide 1-C)
fraction fluorescent probe displaced, Screen (Acid 91): -0.10
fraction fluorescent probe displaced, Replicate (Acid 91): 0.05
